These results are taken from patent US20100029012A1, “Method for identifying modulators of the NRF2-KEAP1-AREP pathway” (priority 2006, published 2010).

Assay [1] deals with T1, His-tagged Keap1-kelch domain polypeptide (Homo sapiens, UniProt Q14145).
T1 construct: the Keap1-kelch domain polypeptide comprises amino acid residues 322 to 609 of the human Keap1 protein; made in house; host or cells: E. coli Rosetta2 BL21 pLysS, plasmid pET15b-Keap1-kelch domain
Nature of the assay: Antibody-based binding assay, displacement of 3H-labeled Nrf2 Peptide 2. Conditions: Keap1-kelch domain polypeptide immobilized via anti-His tag antibody; about 1 nm to about 100 μM; FIG. 2. The text has this:
This example provides a protocol for an antibody-based binding assay for identifying activators of the Nrf2-Keap1 system. Because Keap1 protein's or Keap1-kelch domain polypeptide's binding to the assay plate surface is not dependent on divalent metal cations such as nickel, the antibody-based assay is also useful for determining whether the competitive effect observed in an ion-based assay was a result of the analyte competing with binding of the labeled Peptide 2 with the Keap1-kelch domain or with the binding of the Keap1 protein or Keap1-kelch domain polypeptide with divalent cations on the plate. In general, the assay is performed as follows.
One μg/mL of mouse-derived anti-His tag antibody (Catalog No. 35370, Quiagen, Valencia, Calif.) is added to anti-mouse IgG-coated white plates (Catalog No. 15234, Pierce Biotechnology, Inc.) and incubated at room temperature for two hours. The plate is then washed with four chamber volumes of PBS to remove any excess antibody.
Controls include […] unlabeled Nrf2 Peptide 2 and 0.5% DMSO.
During the last 15 minutes of the 4° C. incubation, one L of cold PBS-T is added to the Liquid 1 wash bottle of the EMBLA 96/384 plate washer (Molecular Devices Corporation, Sunnyvale, Calif.). The instrument is primed using program ‘A1’ a minimum of three times. […]

The test system of assay [2] is His tagged Green Fluorescent Protein (GFP). As to conditions: relative to DMSO; FIG. 3.
Description: In this assay, His tagged Green Fluorescent Protein (GFP) retention on a divalent metal cation surface is monitored in the presence of analytes.
Stock solutions containing analytes at various concentrations or 500 nL DMSO and controls are transferred into the wells of a CHOICECOAT metal chelate white 384 well plates (Catalog No. NC15140, Pierce Biotechnology, Inc.). The volume is 500 nL per well. Controls include 100 μM unlabeled Peptide 2 and 0.5% DMSO.
An assay solution containing one μg His tagged GFP protein in PBS (per well) is prepared and 50 μL of this assay solution is dispensed into each well of the 384 well plates. The plates are covered and incubated at room temperature for two hours. Following the room temperature incubation, the plates are cooled by incubating in a 4° C. refrigerator for one hour. The plates are then washed by aspirating the well, adding 80 uL of PBS-T, aspirating the well, adding 80 uL of PBS-T, and aspirating the well.
The target of assay [3] is T2, recombinant human His-tagged Keap1-kelch domain polypeptide (human, UniProt Q14145 322-609).
T2 construct: domain: kelch domain; Expressed in E. coli from pET15b between NdeI and BamHI; also called recombinant Keap1-kelch domain; kelch domain of the Keap1 protein; not shown: N-terminal six-histidine tag from vector pET15b
T2 sequence (Q14145 322-609): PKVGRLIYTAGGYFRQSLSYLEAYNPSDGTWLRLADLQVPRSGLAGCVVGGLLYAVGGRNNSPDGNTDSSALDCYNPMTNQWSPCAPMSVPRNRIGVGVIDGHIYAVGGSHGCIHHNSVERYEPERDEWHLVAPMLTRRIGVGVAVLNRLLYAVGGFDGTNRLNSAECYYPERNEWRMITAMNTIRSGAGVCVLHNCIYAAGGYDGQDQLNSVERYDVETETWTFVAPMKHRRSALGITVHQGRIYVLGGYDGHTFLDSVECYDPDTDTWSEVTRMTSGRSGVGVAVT
Description: method not stated; binding affinity for the kelch domain.

T1 sequence (Q14145 322-609): as above

With `CC[C@H](C)[C@H](NC(=O)[C@@H]1CCCN1C(=O)[C@H](CC(C)C)NC(=O)[C@H](Cc1ccccc1)NC(=O)[C@H](CCC(=O)O)NC(=O)CNC(=O)[C@@H](NC(=O)[C@H](CCC(=O)O)NC(=O)[C@H](CCC(=O)O)NC(=O)[C@H](CC(=O)O)NC(=O)[C@H](CC(C)C)NC(=O)[C@H](CCC(N)=O)NC(=O)[C@@H](N)CC(C)C)[C@@H](C)O)C(=O)N[C@@H](CCC(N)=O)C(=O)O` [Peptide 2, NH2-LQLDEETGEFLPIQ-OH], in assay [1], the “competition with labeled Peptide 2 for binding to the kelch domain (result in words)” value is “result from this assay expected for an analyte that competes”. Moreover, in assay [2], the “percent inhibition of binding of the GFP to the nickel on the surface of the plate” value is on record as 0%.

Turning to RKRNVESGEEELAS [Pgam5 peptide RKRNVESGEEELAS], the binding affinity in assay [3] was ~626 nM.

With LLVDGETGESFPAQ [Nrf1 peptide LLVDGETGESFPAQ], the binding affinity in assay [3] was ~397 nM.
